Experimental data from article PMC11887451, “Leveraging Immunogenic Cell Death to Enhance the Immune Response against Malignant Pleural Mesothelioma Tumors” (Journal of the American Chemical Society, 2025).
pIC50: −log10 of the molar value. “Also recorded” adds a separate entry of the source.

Assays:
[1] = system: M0-differentiated THP-1 cells; experiment: MTT-based viability assay on M0-differentiated THP-1 cells, 72 h; format: cell-based, human; conditions: 72-h exposure, compared with AB12 cells
Description: incubated for an additional 50 min. Subsequently, the medium was aspirated, and the purple formazan crystals formed in viable cells were dissolved in DMSO (100 μL/well). Optical densities were measured at 570 nm using a BioTek Synergy H1 microplate and MultiskanTM SkyHigh plate readers. The quantity of viable cells was expressed in terms of treated/control (T/C) values in comparison to untreated control cells, and 50% inhibitory concentrations (IC 50) were calculated from concentration-effect curves by interpolation. An evaluation was based on means from at least three independent experiments, each comprising three replicat es per […]
For macrophage analyses, the acute monocytic leukemia -derived THP-1 cell line (ATCC) was used as a model. 1 × 104 THP-1 cells were seeded per well in 96-well plates in RPMI-1640 with 10% FCS and treated for 24 h with 75 nM phorbol 12-myristate 13-acetate (PMA, Sigma-Aldrich) to induce M0 macrophage differentiation. After the differentiation period, PMA was replaced by fresh culture medium to recover for 2h. Afterwards increasing concentrations of 1G, 5A, 5B and 5G were added for a 72-h continuous drug exposure assay. In parallel, the murine mesothelioma cell line AB12 was seeded into 96 -well plates at 2.5 × 10^3 cells/well and were allowed to attach for 24 h. Gold compounds were added to the cells as described for the THP-1 model above. After the incubation period of 72 h, cell viability was determined by an MTT-based assay (EU4U, Biomedica) following the instructions of the manufacturer. DMSO had not impact on the cell viability at the concentrations used. […]

[2] = system: panel of seven MPM cell lines; experiment: MTT cytotoxicity assay, 72 h, whole panel (summary ranges); format: cell-based; conditions: read-out: cytotoxicity range across the cell line panel
Description: Human malignant mesothelioma cancer cell lines JU77 and LO68 were obtained from Cell Bank Australia (Children's Medical Research Institute, Westmead, Australia). Mouse malignant mesothelioma cancer cell line AB12, human nonmalignant mesothelioma cancer cell line Met5A (mesothelial cells), mouse macrophage cell line J774 and human monocytic cell line THP-1 were obtained from American Type Culture Collection (ATCC) (Rockville, MD, USA). Human malignant mesothelioma cell lines VMC23 (epithelial), Meso82 (sarcomatous), Meso92 (biphasic), were kindly provided by Prof. Walter Berger (Medical University of Vienna). All cells except for J774 were cultured in RPMI and J774 cells were cultured in DMEM. Both types of media were supplemented with 10% FBS and 1% penicillin-streptomycin (10,000 U/mL). Cells were grown in tissue culture flasks (75 cm2 and 25 cm2, SPL Life Sciences Co., Ltd., Korea). All cell lines were grown at 37 °C in a humidified atmosphere of 95% air and 5% CO 2 and passaged when they reached 80–90% confluency. All Au stock solutions were prepared in 1% DMSO in the respected medium, ensuring that cell viability was not inhibited. […]
The cytotoxicity of compounds was determined using an MTT colorimetric test. […]
incubated for an additional 50 min. […] Optical densities were measured at 570 nm using a BioTek Synergy H1 microplate and MultiskanTM SkyHigh plate readers. […]

[3] = system: AB12 cells in BALB/c mice; experiment: In vivo vaccination model; set-up: species or system mouse; conditions: n = 8
Description: Initially, AB12 cells underwent pretreatment with varying concentrations of Au(III) complexes, and the induced cell death and release of desired ICD biomarkers were monitored over time. Upon reaching a cell death rate of 65%–75%, BALB/c mice (n = 8) were subcutaneously injected in the left flank with a vaccine containing 3 × 10^5 of live/dying/dead cells, while the vehicle group received injections of PBS. Seven days postvaccine administration, the immunized mice were rechallenged by inoculating the same number of live AB12 cells (without any prior treatment) into the right flanks (Figure 5A). The progression of tumor growth on the right flanks was monitored using a caliper.
AB12 cells were seeded into Cellstar 24-well plates (Greiner Bio-One) at a density of 1.8 × 104
cells/ml (1 ml per well) and allowed to grow exponentially for 16 hours. Subsequently, the
medium was replaced with 1 ml of fresh medium containing compounds of interest at
predetermined concentrations (with a minimum of 4 wells per treatment condition). These
concentrations were selected to induce 65-75% cell death.
Subsequently, the culture
medium was aspirated, and the cells were washed twice with 1 mL of PBS. The cell
concentration was adjusted to 3 × 10^5 cells (including dead/dying/live cells) per 100 μL of PBS,
and the ratio of dead/live cells was assessed using the Invitrogen Countess 3 cell counter. In
the subsequent experiment, BALB/c mice (8 mice per group) were subcutaneously injected
with 0.1 mL of AB12 cells (3 × 10^5 cells/mL, including dead/dying/live cells) or the
corresponding vehicle (PBS) on the left flank. Tumor growth was monitored daily.
After 7 days, the mice were subcutaneously injected with
0.1 mL of AB12 cells (3 × 10^5 cells/mL, live cells) on the right flank. Regular measurements
of body weights and tumor sizes were taken. Mice that developed palpable tumors were
euthanized for further analysis.

HMGB1 in AB12 cells = experiment: HMGB1 detection, flow cytometry; format: cell-based, mouse; conditions: AB12, 5 × IC50 (72 h), 240 min
Description: AB12 cells were seeded into Cellstar 6-well plates (Greiner Bio-One) at a density of 5 × 10^5 cells per well (2 ml per well). The cells were allowed to resume exponential growth for 16 h. […] After the treatment, the supernatant was collected in 2 mL microtubes. The wells were washed with 1 ml of PBS, trypsinized with 300 μL of trypsin at 37 °C for 5 min and combined with the corresponding supernatant. The cell suspension was then centrifuged (300  g, 10 min), washed with PBS (2  1 ml). […] RT, washed once with 1 mL PBS and centrifuged (500  g, 10 min). Next, cells were incubated with HMGB1 antibody (Catalogue number: 3935, Cell Signaling Technology) at 4 °C overnight (1:500 dilution in PBS) and washed with 1 ml of PBS (500  g, 10 min). […] The cells were excited by the 488 nm laser, and fluorescence S24 page 25: emission was detected at 525/40 nm for FITC (CRT). The resulting dot blots were acquired from 10,000 events and quantified using Flowjo software (version 10.8.0, BD Biosciences, San Jose, CA, USA).

[4] = system: calreticulin (CRT) in AB12 cells; experiment: CRT detection, flow cytometry; format: cell-based, mouse; conditions: AB12, 5 × IC50 (72 h), 120 min
Description: page 23: concentrations for 100 min at 37 °C. After the treatment, the supernatant was collected in 2 mL microtubes, centrifuged (300 × g, 5 min) and the media was removed. The adherent cells were then trypsinized with 500 μL of trypsin at 37 °C for 5 min. Next, 1 mL of medium was added to neutralize trypsin and the resulting cell suspension was combined with the supernatant. The wells were washed with 200 μL of PBS, which was also combined with the supernatant. The combined solutions were centrifuged (300 × g, 5 min), and the resulting pellets were washed with PBS (2 × 1 mL) and resuspended in 200 μL of Annexin V binding buffer. […] Cell death was evaluated by flow cytometry using a CytoFLEX Flow Cytometer equipped with a 488 nm laser and a 638 nm laser (Beckman Coulter, Brea, CA, USA). The cells were excited by the 488 nm laser, and fluorescence emissions were detected at 525/40 nm for FITC (Annexin V) and at 610/20 nm for ECD (PI). […] The percentage of necrosis was determined by calculating the sum of cells in Q1 and Q2. […] Next, cells were incubated with CRT antibody conjugated with AlexaFluor S23 page 24: 488 (62304S, Cell Signaling Technology) at 4 °C overnight, washed twice with PBS, reconstituted in 500 µL of PBS and analyzed by flow cytometry using a CytoFLEX Flow Cytometer equipped with a 488 nm laser and a 638 nm laser (Beckman Coulter, Brea, CA, USA). […]

| Compound | sensitivity of THP-1-derived macrophages [1] | pIC50 [2] | mice that developed tumors by Day 51 [3] | HMGB1 expression (in words) (HMGB1 in AB12 cells) | CRT expression (in words) [4] |
| --- | --- | --- | --- | --- | --- |
| F[P-](F)(F)(F)(F)F.c1cc[c]2c(c1)Nc1cccc[n+]1[Au-]21[S]C(=[N+]2CCCCCC2)[S]1 (centres unmarked) [5G] | highly sensitive; also recorded: increased sensitivity in comparison to the malignant mesothelioma cells |  |  |  |  |
| Nc1nc2[nH]cc(CCc3ccc(C(=O)N[C@@H](CCC(=O)O)C(=O)O)cc3)c2c(=O)[nH]1 [Pemetrexed, pemetrexed, reference compound] |  | 6.52 to 7.64 | four of the eight | significant increase in HMGB1 expression | no changes in CRT expression |
